Experimental data as given in US8975286B2, “Ether benzotriazole derivatives” (Merck Sharp & Dohme Corp., priority 2009, dated 2015).

These compounds were tested against T1, recombinant human mGluR2 (Homo sapiens, UniProt Q14416) (assay: FLIPR Ca2+ mobilization assay, potentiation of glutamate (EC20) response). Conditions: CHO dhfr- cells expressing human mGluR2 and Gα16; potentiation with EC20 glutamate (900 nM); read-out: Representative FLIPR EC50 Values.
T1 construct: expressed in transfected cells
Format: cell-based
Experimental: Potencies are determined as follows. The compounds of the present invention may be tested in a fluorescence laser imaging plate reader (FLIPR) based assay. This assay is a common functional assay to monitor Ca^2+ mobilization in whole cells expressing recombinant receptor coupled with a promiscuous G-protein. CHO dhfr− cells stably expressing recombinant human mGluR2 and Gα16 loaded with Fluo-4 AM (Invitrogen, Carlsbad Calif.) are treated with varying concentrations of compounds and the Ca^2+ response is monitored on a FLIPR384 (Molecular Devices, Sunnydale Calif.) for agonist activity. The potentiation response is monitored after a subsequent addition of an EC20 concentration of glutamate (900 nM). The maximum calcium response at each concentration of compound for agonism or potentiation are plotted as dose responses curves fitted with a four parameters logistic equation giving EC50 and Hill coefficient using the iterative non linear curve fitting software program.

T1 sequence (Q14416 19-872): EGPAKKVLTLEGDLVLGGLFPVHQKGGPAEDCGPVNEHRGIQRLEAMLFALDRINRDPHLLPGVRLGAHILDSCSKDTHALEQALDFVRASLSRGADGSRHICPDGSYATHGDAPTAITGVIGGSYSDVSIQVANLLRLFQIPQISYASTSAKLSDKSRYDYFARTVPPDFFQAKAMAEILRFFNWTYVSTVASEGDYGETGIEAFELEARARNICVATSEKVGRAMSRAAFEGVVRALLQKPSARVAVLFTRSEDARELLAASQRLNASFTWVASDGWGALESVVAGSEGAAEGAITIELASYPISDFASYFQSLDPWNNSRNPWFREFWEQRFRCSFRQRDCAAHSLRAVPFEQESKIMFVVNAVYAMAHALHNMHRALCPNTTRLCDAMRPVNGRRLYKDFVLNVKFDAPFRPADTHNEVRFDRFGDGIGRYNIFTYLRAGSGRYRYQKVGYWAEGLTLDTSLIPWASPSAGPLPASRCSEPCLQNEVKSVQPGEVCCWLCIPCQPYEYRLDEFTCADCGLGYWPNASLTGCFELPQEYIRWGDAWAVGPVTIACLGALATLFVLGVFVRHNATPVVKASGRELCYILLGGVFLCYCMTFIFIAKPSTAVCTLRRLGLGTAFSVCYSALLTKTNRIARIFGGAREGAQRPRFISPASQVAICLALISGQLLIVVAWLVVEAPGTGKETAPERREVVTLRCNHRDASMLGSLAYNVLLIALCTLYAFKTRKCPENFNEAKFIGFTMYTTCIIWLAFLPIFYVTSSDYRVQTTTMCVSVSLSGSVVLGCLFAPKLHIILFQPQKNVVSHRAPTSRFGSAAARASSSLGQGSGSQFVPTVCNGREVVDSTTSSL

Structure (SMILES) | EC50
CC(O)c1cccnc1Oc1ccc2c(nnn2CC2CC2)c1C(F)(F)F (racemic) [Example 418, (±)-1-(2-{[1-(cyclopropylmethyl)-4-(trifluoromethyl)-1H-benzotriazol-5-yl]oxy}pyridin-3-yl)ethanol] | 49 nM
CC1CN(Cc2cc(F)cnc2Oc2ccc3c(nnn3CC3CC3)c2Br)CCN1S(C)(=O)=O (stereo in doubt) [Example 290, 4-bromo-1-(cyclopropylmethyl)-5-[(5-fluoro-3-{[(3R)-3-methyl-4-(methylsulfonyl)piperazin-1-yl]methyl}pyridin-2-yl)oxy]-1H-benzotriazole] | 2 nM
OCC(O)c1cccnc1Oc1ccc2c(nnn2CC2CC2)c1Br (centres unmarked) [Example 52, 1-(2-{[4-bromo-1-(cyclopropylmethyl)-1H-benzotriazol-5-yl]oxy}pyridin-3-yl)ethane-1,2-diol] | 814 nM
COCC(OC)c1cccnc1Oc1ccc2c(nnn2CC2CC2)c1Br (centres unmarked) [Example 55, 4-bromo-1-(cyclopropylmethyl)-5-{[3-(1,2-dimethoxyethyl)pyridin-2-yl]oxy}-1H-benzotriazole] | 95 nM
CC(C)(C)C(O)c1cccnc1Oc1ccc2c(nnn2CC2CC2)c1Br (centres unmarked) [Example 72, 1-(2-{[4-bromo-1-(cyclopropylmethyl)-1H-benzotriazol-5-yl]oxy}pyridin-3-yl)-2,2-dimethylpropan-1-ol] | 5 nM
CC(C)(C)C(O)c1cccnc1Oc1ccc2c(nnn2CC2CC2)c1Br (centres unmarked) [Example 91, 1-(2-{[4-bromo-1-(cyclopropylmethyl)-1H-benzotriazol-5-yl]oxy}pyridin-3-yl)-2,2-dimethylpropan-1-ol] | 6 nM
OC(c1cccnc1Oc1ccc2c(nnn2CC2CC2)c1Br)C1CC1 (centres unmarked) [Example 93, (2-{[4-bromo-1-(cyclopropylmethyl)-1H-benzotriazol-5-yl]oxy}pyridin-3-yl)(cyclopropyl)methanol] | 11 nM
CC(C)(C)Cn1nnc2c(Br)c(Oc3ncccc3C(F)(F)F)ccc21 [Example 111, 4-bromo-1-(2,2-dimethylpropyl)-5-{[3-(trifluoromethyl)pyridin-2-yl]oxy}-1H-benzotriazole] | 64 nM
Cc1cccnc1Oc1ccc2c(nnn2CC(C)(C)C)c1Br [Example 122, 4-bromo-1-(2,2-dimethylpropyl)-5-[(3-methylpyridin-2-yl)oxy]-1H-benzotriazole] | 80 nM
CC(C)(C)Cn1nnc2c(Br)c(Oc3cccc(Br)n3)ccc21 [Example 148, 4-bromo-5-[(6-bromopyridin-2-yl)oxy]-1-(2,2-dimethylpropyl)-1H-benzotriazole] | 23 nM
CC(O)c1ncccc1Oc1ccc2c(nnn2CC(C)(C)C)c1Br (centres unmarked) [Example 151, 1-(3-{[4-bromo-1-(2,2-dimethylpropyl)-1H-benzotriazol-5-yl]oxy}pyridin-2-yl)ethanol] | 122 nM
Cn1cc(-c2cnc(Oc3ccc4c(nnn4CC(C)(C)C)c3Br)c(C#N)c2)cn1 [Example 169, 2-{[4-bromo-1-(2,2-dimethylpropyl)-1H-benzotriazol-5-yl]oxy}-5-(1-methyl-1H-pyrazol-4-yl)pyridine-3-carbonitrile] | 425 nM
CCC(O)c1cccnc1Oc1ccc2c(nnn2CC(C)(C)C)c1Br (centres unmarked) [Example 184, 1-(2-{[4-bromo-1-(2,2-dimethylpropyl)-1H-benzotriazol-5-yl]oxy}pyridin-3-yl)propan-1-ol] | 21 nM
FC1(F)CCN(Cc2cccnc2Oc2ccc3c(nnn3CC3CC3)c2Br)CC1 [Example 194, 4-Bromo-1-(cyclopropylmethyl)-5-({3-[(4,4-difluoropiperidin-1-yl)methyl]pyridin-2-yl}oxy)-1H-benzotriazole] | 32 nM
CS(=O)(=O)N1CCN(Cc2cc(Cl)cnc2Oc2ccc3c(nnn3CC3CC3)c2Br)CC1 [Example 198, 4-bromo-5-[(5-chloro-3-{[4-(methylsulfonyl)piperazin-1-yl]methyl}pyridin-2-yl)oxy]-1-(cyclopropylmethyl)-1H-benzotriazole] | 3 nM
FC1(F)CCCN(Cc2cccnc2Oc2ccc3c(nnn3CC3CC3)c2Br)C1 [Example 204, 4-bromo-1-(cyclopropylmethyl)-5-({3-[(3,3-difluoropiperidin-1-yl)methyl]pyridin-2-yl}oxy)-1H-benzotriazole] | 39 nM

Structure (SMILES) | EC50
FC(F)(F)CNCc1cccnc1Oc1ccc2c(nnn2CC2CC2)c1Br [Example 213, N-[(2-{[4-bromo-1-(cyclopropylmethyl)-1H-benzotriazol-5-yl]oxy}pyridin-3-yl)methyl]-2,2,2-trifluoroethanamine] | 40 nM
FCC1CCN(Cc2cccnc2Oc2ccc3c(nnn3CC3CC3)c2Br)C1 (centres unmarked) [Example 215, 4-bromo-1-(cyclopropylmethyl)-5-[(3-{[3-(fluoromethyl)pyrrolidin-1-yl]methyl}pyridin-2-yl)oxy]-1H-benzotriazole] | 129 nM
CC1(O)CCN(Cc2cccnc2Oc2ccc3c(nnn3CC3CC3)c2Br)CC1 [Example 227, 1-[(2-{[4-bromo-1-(cyclopropylmethyl)-1H-benzotriazol-5-yl]oxy}pyridin-3-yl)methyl]-4-methylpiperidin-4-ol] | 705 nM
CC(=O)N1CCCN(Cc2cc(F)cnc2Oc2ccc3c(nnn3CC3CC3)c2Br)CC1 [Example 253, 5-({3-[(4-acetyl-1,4-diazepan-1-yl)methyl]-5-fluoropyridin-2-yl}oxy)-4-bromo-1-(cyclopropylmethyl)-1H-benzotriazole] | 52 nM
CS(=O)(=O)N1CCCN(Cc2cc(Cl)cnc2Oc2ccc3c(nnn3CC3CC3)c2Br)CC1 [Example 280, 4-bromo-5-[(5-chloro-3-{[4-(methylsulfonyl)-1,4-diazepan-1-yl]methyl}pyridin-2-yl)oxy]-1-(cyclopropylmethyl)-1H-benzotriazole] | 8 nM
O=C(NCc1cc(F)cnc1Oc1ccc2c(nnn2CC2CC2)c1Br)c1ccon1 [Example 284, N-[(2-{[4-bromo-1-(cyclopropylmethyl)-1H-benzotriazol-5-yl]oxy}-5-fluoropyridin-3-yl)methyl]isoxazole-3-carboxamide] | 64 nM
CC(C)(C)OC(=O)N1C[C@@H]2C[C@H]1CN2Cc1cc(Cl)cnc1Oc1ccc2c(nnn2CC2CC2)c1Br [Example 297, tert-butyl(1S,4S)-5-[(2-{[4-bromo-1-(cyclopropylmethyl)-1H-benzotriazol-5-yl]oxy}-5-chloropyridin-3-yl)methyl]-2,5-diazabicyclo[2.2.1] heptane-2-carboxylate] | 19 nM
Clc1cnc(Oc2ccc3c(nnn3CC3CC3)c2Br)c(CN2CCN(c3nccs3)CC2)c1 [Example 320, 4-bromo-5-[(5-chloro-3-{[4-(1,3-thiazol-2-yl)piperazin-1-yl]methyl}pyridin-2-yl)oxy]-1-(cyclopropylmethyl)-1H-benzotriazole] | 5 nM
OCC1C2CN(Cc3cc(Cl)cnc3Oc3ccc4c(nnn4CC4CC4)c3Br)CC12 (centres unmarked) [Example 357, {3-[(2-{[4-bromo-1-(cyclopropylmethyl)-1H-benzotriazol-5-yl]oxy}-5-chloropyridin-3-yl)methyl]-3-azabicyclo[3.1.0]hex-6-yl}methanol] | 13 nM
CS(=O)(=O)NC1CCN(Cc2cc(Cl)cnc2Oc2ccc3c(nnn3CC3CC3)c2Br)CC1 [Example 365, N-{1-[(2-{[4-bromo-1-(cyclopropylmethyl)-1H-benzotriazol-5-yl]oxy}-5-chloropyridin-3-yl)methyl]piperidin-4-yl}methanesulfonamide] | 8 nM
Clc1cnc(Oc2ccc3c(nnn3CC3CC3)c2Br)c(CN2CC(n3cccn3)C2)c1 [Example 384, 4-bromo-5-[(5-chloro-3-{[3-(1H-pyrazol-1-yl)azetidin-1-yl]methyl}pyridin-2-yl)oxy]-1-(cyclopropylmethyl)-1H-benzotriazole] | 8 nM
CC(C)(O)c1cccnc1Oc1ccc2c(nnn2CC2CC2)c1Cl [Example 396, 2-(2-{[4-chloro-1-(cyclopropylmethyl)-1H-benzotriazol-5-yl]oxy}pyridin-3-yl)propan-2-ol] | 556 nM
OC(CF)(CF)c1cccnc1Oc1ccc2c(nnn2CC2CC2)c1Cl [Example 398, 2-(2-{[4-chloro-1-(cyclopropylmethyl)-1H-benzotriazol-5-yl]oxy}pyridin-3-yl)-1,3-difluoropropan-2-ol] | 556 nM
OC1(c2cccnc2Oc2ccc3c(nnn3CC3CC3)c2Cl)CCC(C(F)(F)F)CC1 (centres unmarked) [Example 411, 1-(2-{[4-chloro-1-(cyclopropylmethyl)-1H-benzotriazol-5-yl]oxy}pyridin-3-yl)-4-(trifluoromethyl) cyclohexanol] | 257 nM
OC(c1cccnc1Oc1ccc2c(nnn2CC2CC2)c1C(F)(F)F)C1CC1 (centres unmarked) [Example 421, cyclopropyl(2-{[1-(cyclopropylmethyl)-4-(trifluoromethyl)-1H-benzotriazol-5-yl]oxy}pyridin-3-yl)methanol] | 20 nM
CC(C)(C)Cn1nnc2c(Br)c(Oc3ccncc3)ccc21 [compound 423, 4-bromo-1-(2,2-dimethylpropyl)-5-pyridin-4-yloxy-1H-benzotriazole] | 141 nM
